Where two headings read alike, the source gives them in different places.

One data set deals with HDAC6 (Homo sapiens (Human), UniProt Q9UBN7). The data set is described as follows: HDAC6 enzymatic activity assay. In kind it is biochemical. As for the experimental part: The inhibitory activity of the compounds of the present application against HDAC6 was evaluated by an enzymatic activity assay. HDAC6 (Abcam), test compounds, and a 20 µM substrate solution (Ac-GAK(Ac)-AMC) were each added to a 384-well plate, and the plate was incubated at 37° C. for 30 min. […] and […] were added, and the plate was incubated at room temperature for 15 min. […] IC50 was obtained by fitting using GraphPadPrism 7.0 software.

The test system of data set [1] is acetylation level of α-tubulin in HCT116 cells. The data set is described as follows: Assay on acetylation level of α-tubulin, HCT116 cells. The format is cell-based. To be noted: Homo sapiens, HCT-116, 6 h. As for the experimental part:
A375/HCT116/HCC827 cells at a logarithmic growth phase were taken, digested with a […] (trypsin), centrifuged, counted, and plated in a 96-well plate at an appropriate cell density (30,000 cells/well) at 100 µL/well, and an appropriate amount of PBS was added around the plate for water sealing. The next day, the cells were treated with the compounds at different concentrations (starting at 100 μM, 5-fold dilution, 9 concentration gradients). After 6 h, the medium was pipetted out and the cells were washed twice with 100 μL of PBST. The cells were then immobilized in 4% paraformaldehyde, and the plate was incubated at room temperature for 20 min. The stationary liquid was discarded and the cells were washed with PBST. 150 μL of special blocking buffer (containing 1% Triton-100) was added to each well for blocking at room temperature for 2 h, and the plate was washed with PBS to remove excess blocking buffer. α-tubulin (DM1A) mouse mAb and acetyl-α-tubulin (Lys40) (D20G3) XP rabbit mAb were diluted at a 1:2000 ratio with a blocking buffer containing 0.033% Triton-100. The dilutions were added to the 96-well plate and the plate was incubated overnight at 4° C. Meanwhile, a blank control group was set. The next day, the plate was washed twice with PBST. Secondary anti-mouse IgG (H+L) (DyLight™ 680 conjugate) and anti-rabbit IgG (H+L) (DyLight™ 800 conjugate) were diluted at a 1:2000 ratio with a blocking buffer containing 0.033% Triton-100. The dilutions were added to a 96-well plate and the plate was incubated at room temperature for 2 h. The plate was washed twice with PBST and once with PBS. Fluorescence signals at 700 nm and 800 nm were detected with a Li-COR Odyssey two-color near-infrared laser imager.

Data set [2] in a line: Brain-to-blood drug concentration ratio of mice. In kind it is in vivo. To be noted: mouse, 5 mg/kg PO. Put shortly:
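Mice (9/group) dosed once IV or PO; orbital blood into K2-EDTA tubes for plasma, with brain homogenate, processed by acetonitrile precipitation (propafenone internal standard) and measured by LC-MS/MS. Ratio taken as brain tissue concentration over plasma concentration at the same time point.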

Data set [3] is described as follows: Pharmacokinetic test in mice (IV and PO). Particulars: for Cmax / AUC(0-inf) / AUC(0-t) / MRT inf / Vd / Tmax: BALB/c, mouse, plasma; for MRT inf: read-out: MRT(0-∞); for Vd: read-out: Vz. The format is in vivo, BALB/c mice. In a few lines:
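BALB/c mice (3 per group) given single IV or intragastric doses; blood sampled orbitally at 0.25–24 h into K2-EDTA tubes for plasma. Concentrations measured by LC-MS/MS; parameters from non-compartmental analysis with linear-log trapezoidal method.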

The mark [4] stands for this setting: brain, read-out: Brain drug concentration.
Where [5] appears, read: plasma, read-out: Blood drug concentration.

Sequence of HDAC6 (Q9UBN7 whole entry): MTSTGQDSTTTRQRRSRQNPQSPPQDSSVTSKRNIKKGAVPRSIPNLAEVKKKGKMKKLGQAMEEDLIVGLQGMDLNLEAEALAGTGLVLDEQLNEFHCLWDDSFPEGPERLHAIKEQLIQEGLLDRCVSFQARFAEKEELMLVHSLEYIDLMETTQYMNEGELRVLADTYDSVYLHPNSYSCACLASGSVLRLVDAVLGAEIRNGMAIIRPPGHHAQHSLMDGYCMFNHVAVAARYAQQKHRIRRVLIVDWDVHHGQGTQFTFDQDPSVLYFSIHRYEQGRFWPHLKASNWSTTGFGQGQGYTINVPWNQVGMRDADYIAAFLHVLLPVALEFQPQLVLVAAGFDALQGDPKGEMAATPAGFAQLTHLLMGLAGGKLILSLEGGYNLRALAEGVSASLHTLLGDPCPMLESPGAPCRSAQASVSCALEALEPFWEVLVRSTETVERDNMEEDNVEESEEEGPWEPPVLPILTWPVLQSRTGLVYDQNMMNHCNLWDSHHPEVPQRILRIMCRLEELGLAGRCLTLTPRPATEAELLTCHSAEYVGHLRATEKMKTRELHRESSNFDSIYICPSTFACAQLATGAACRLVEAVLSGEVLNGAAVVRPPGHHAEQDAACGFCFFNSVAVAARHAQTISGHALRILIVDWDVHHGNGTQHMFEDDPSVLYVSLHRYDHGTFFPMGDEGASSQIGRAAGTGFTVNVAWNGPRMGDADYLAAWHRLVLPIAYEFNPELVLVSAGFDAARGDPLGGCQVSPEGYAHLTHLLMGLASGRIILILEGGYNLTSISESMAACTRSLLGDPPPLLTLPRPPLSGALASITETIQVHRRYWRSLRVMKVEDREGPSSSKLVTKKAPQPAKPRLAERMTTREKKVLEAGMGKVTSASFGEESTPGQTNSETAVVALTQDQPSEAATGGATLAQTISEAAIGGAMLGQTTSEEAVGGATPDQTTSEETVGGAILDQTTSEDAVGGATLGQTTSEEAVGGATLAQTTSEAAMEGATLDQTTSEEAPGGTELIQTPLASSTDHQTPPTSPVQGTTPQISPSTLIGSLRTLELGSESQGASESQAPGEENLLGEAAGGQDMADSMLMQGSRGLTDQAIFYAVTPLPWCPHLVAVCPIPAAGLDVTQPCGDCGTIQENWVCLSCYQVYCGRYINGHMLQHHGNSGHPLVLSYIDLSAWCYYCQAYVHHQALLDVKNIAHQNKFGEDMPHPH

Take `O=S1(=O)c2cc(-c3nnc(C(F)F)o3)ccc2CN1[C@@H](c1ccccn1)[C@H](O)c1ccc(F)cn1` (single isomer, unassigned) [Compound 84j-A]: the midpoint of inhibition against HDAC6, the IC50, lay at 0.0427 µM. Moreover, the EC50 (as a rule, the concentration at which the effect is half-maximal) in data set [1] stood at 0.544 µM.
`O=S1(=O)c2cc(-c3nnc(C(F)F)o3)ccc2CN1[C@@H](c1ccc(F)cn1)[C@H](O)c1ccc(F)cn1` (single isomer, unassigned) [Compound 88j-A-B]: the half-inhibitory concentration (IC50) (in general, the concentration at which inhibition is half-maximal) against HDAC6 was 0.16 µM. In data set [1], this compound displayed an EC50 of 0.619 µM.
For `CC(F)(F)C(=O)N[C@H]1[C@H](N2Cc3ccc(-c4nnc(C(F)F)o4)cc3S2(=O)=O)CCCC1(F)F` [Compound 7] the same measures were 0.0567 µM and 0.245 µM.
Consider `CC(F)(F)C(=O)N[C@@H]1CCCC(F)(F)[C@H]1N1Cc2ccc(-c3nnc(C(F)F)o3)cc2S1(=O)=O` [Compound 10], for which, in data set [2] (setting [4]), the concentration at 2 h amounted to 0.338 µg/mL. Also, the concentration at 8 h in data set [2] (brain, 8 h, read-out: Brain drug concentration) came to 0.08 µg/mL. In addition, the Kp (as a rule, the ratio of the level in a tissue or fluid to that in plasma or blood) at 2 h in data set [2] (brain/plasma) turned out to be 0.17. Also, in data set [2] (brain/plasma, 8 h), the Kp at 8 h was determined as 0.29. Further, the concentration at 2 h in data set [2] (setting [5]) worked out at 2.02 µg/mL. For the same compound, in data set [2] (plasma, 8 h, read-out: Blood drug concentration), the concentration at 8 h was 0.277 µg/mL. In data set [3] (po, 5 mg/kg, read-out: C0/Cmax), the Cmax is 4.77 µM. For the same compound, in data set [3] (mice, IV 1 mg/kg), the area under the curve AUC(0-inf) (as a rule, the area under the concentration-time curve extrapolated to infinity) stood at 3.68 µM·h; the AUC(0-t) (as a rule, exposure summed from dosing to a finite time, without extrapolation to infinity) is 3.48 µM·h; the MRT inf came out at 2.5 h; the Vd was 1.5 L/kg. Also, in data set [3] (mice, IV 1 mg/kg), the CLz was 0.5 L/h/kg and the t½z amounted to 1.9 h. The compound further showed a Cmax in data set [3] (mice, IV 1 mg/kg (C0)) of 1.72 µM. In data set [3] (mice, PO 5 mg/kg), the total exposure AUC(0-inf) is 21.5 µM·h; the AUC(0-t) came to 19.9 µM·h; the Tmax – broadly, the time from dosing to the highest level – is 0.5 h; the MRT inf worked out at 3.3 h. In data set [3] (mice, PO 5 mg/kg), this compound came in with an F of 117.1% and a t½z of 2.1 h. The compound further had an IC50 against HDAC6 of 0.0431 µM. In data set [1], this compound displayed an EC50 of 0.262 µM.
With `O=C(N[C@@H]1CCOC[C@H]1N1Cc2ccc(-c3nnc(C(F)F)o3)cc2S1(=O)=O)C(F)F` [Compound 14], in data set [2] (setting [4]), the concentration at 1 h stood at 0.0856 µg/mL and the concentration at 2 h was found to be 0.0428 µg/mL. Also, in data set [2] (brain/plasma), the Kp at 1 h is 0.03 and the Kp at 2 h was 0.03. In data set [2] (setting [5]), the concentration at 1 h was 2.45 µg/mL and the concentration at 2 h is 1.38 µg/mL. Further, the Cmax in data set [3] (po, 5 mg/kg, read-out: C0/Cmax) is 7.27 µM. In data set [3] (mice, IV 1 mg/kg), the AUC(0-inf) was 4.27 µM·h, the AUC(0-t) worked out at 4.22 µM·h, the MRT inf was found to be 1.5 h and the Vd stood at 0.928 L/kg. In data set [3] (mice, IV 1 mg/kg), this compound registered a CLz of 0.504 L/h/kg and a t½z of 1.277 h. In data set [3] (mice, IV 1 mg/kg (C0)), this compound gave a Cmax of 3.15 µM. Further, in data set [3] (mice, PO 5 mg/kg), the AUC(0-inf) was determined as 15.2 µM·h, the AUC(0-t) was determined as 14.8 µM·h, the Tmax is 0.5 h and the MRT inf amounted to 1.88 h. Further, in data set [3] (mice, PO 5 mg/kg), the F is on record as 71.27% and the t½z worked out at 1.48 h. Moreover, the EC50 in data set [1] came to 0.124 µM.
On to `O=C(N[C@@H]1CCCC[C@H]1N1Cc2ccc(-c3nnc(C(F)F)o3)cc2S1(=O)=O)N1CCOCC1` [Compound 113], for which, in data set [2] (setting [4]), the concentration at 1 h turned out to be 0.0448 µg/mL and the concentration at 2 h was determined as 0.0162 µg/mL. Further, in data set [2] (brain/plasma), the Kp at 1 h is 0.03 and the Kp at 2 h turned out to be 0.02. Besides, in data set [2] (setting [5]), the concentration at 1 h was 1.4 µg/mL and the concentration at 2 h worked out at 0.93 µg/mL. The Cmax in data set [3] (po, 5 mg/kg, read-out: C0/Cmax) amounted to 5.13 µM. Moreover, in data set [3] (mice, IV 1 mg/kg), the AUC(0-inf) worked out at 1.71 µM·h, the AUC(0-t) is 1.7 µM·h, the MRT inf came to 0.542 h and the Vd amounted to 1.03 L/kg. In data set [3] (mice, IV 1 mg/kg), this compound yielded a CLz of 1.175 L/h/kg and a t½z of 0.605 h. Further, the Cmax in data set [3] (mice, IV 1 mg/kg (C0)) came out at 3.47 µM. Moreover, in data set [3] (mice, PO 5 mg/kg), the AUC(0-inf) came to 8.71 µM·h, the AUC(0-t) was determined as 8.64 µM·h, the Tmax was 0.25 h and the MRT inf was determined as 1.47 h. In data set [3] (mice, PO 5 mg/kg), this compound gave an F of 101.8% and a t½z of 1.149 h. This compound also registered an EC50 in data set [1] of 0.239 µM.
In turn, `O=C(N[C@@H]1CCCC[C@H]1N1Cc2ccc(-c3nnc(C(F)F)o3)cc2S1(=O)=O)C1CC1` [Compound 114] showed an IC50 against HDAC6 of 0.0975 µM. The EC50 in data set [1] is 0.351 µM.

Source of the values: patent US20250257060A1, “OXADIAZOLE COMPOUND, PHARMACEUTICAL COMPOSITION COMPRISING SAME, AND USE THEREOF” (SUZHOU GENHOUSE BIO CO., LTD., priority 2022, published 2025).
